A short description of series [1]: Electrical conductivity of clay dispersions and drug solutions. The format is physicochemical. As to conditions: for Conductivity, Mean / Conductivity, Trial 1 / Conductivity, Trial 2 / Conductivity, Trial 3 / pH, Mean / pH, Trial 1 / pH, Trial 2 / pH, Trial 3: dispersions.
For series [2] the following is noted: pH 3. Here is the method:
Into 10 mL of drug solution (containing 25 mg of tramadol HCl), 50 mg of talc was added and vortexed for 5 seconds followed by centrifugation @1500 rpm for 5 minutes. The solution was filtered through a 0.2 μm syringe filter; 0.5 ml of the supernatant solution was diluted with 10 ml of solvent, and then analyzed for drug concentration by UV spectroscopy @271 nm.
Into 10 mL of drug solution (containing 25 mg of tramadol HCl), 50 mg of zinc acetate was added and vortexed for 5 seconds followed by centrifugation @1500 rpm for 5 minutes. The solution was filtered through a 0.2 μm syringe filter; 0.5 ml of the supernatant solution was diluted with 10 ml of solvent, and then analyzed for drug concentration by UV spectroscopy @271 nm.
The solution was filtered through a 0.2 μm syringe filter; 0.5 ml of the supernatant solution was diluted with 10 ml of solvent, and then analyzed for drug concentration by UV spectroscopy @271 nm.

Counter-ions that a name gives are not always drawn.

Regarding `O=C([O-])[O-].[Na+].[Na+]` [Na2CO3], in series [1], the “Conductivity, Mean” value is on record as −247.7 mV; the “Conductivity, Trial 1” value is given as −247.4 mV; the “Conductivity, Trial 2” value is given as −248.3 mV; the “Conductivity, Trial 3” value was −247.5 mV. Besides, in series [1], the “pH, Mean” value was determined as 11.40; the “pH, Trial 1” value is listed as 11.40; the “pH, Trial 2” value was found to be 11.42; the “pH, Trial 3” value amounted to 11.40.

As for `[Cl-].[Na+]` [NaCl], in series [1], the “Conductivity, Mean” value came out at 40.3 mV; the “Conductivity, Trial 1” value was determined as 34.7 mV; the “Conductivity, Trial 2” value amounted to 33.6 mV; the “Conductivity, Trial 3” value came out at 52.6 mV. Further, in series [1], the “pH, Mean” value stood at 6.38; the “pH, Trial 1” value is on record as 6.48; the “pH, Trial 2” value amounted to 6.50; the “pH, Trial 3” value was 6.16.

For `CC(=O)[O-].CC(=O)[O-].[Zn+2]` [Zinc Acetate], in series [2], the “% Bound” value is on record as 2.9%.

Regarding `CN(C)CCOC(c1ccccc1)c1ccccc1` [diphenhydramine HCl], the Cond. in series [1] (drug solution in 0.1N HCl, 100 μg/mL) is recorded as 334.4 mV; in series [1] (drug solution in 0.1N HCl, 200 μg/mL), 333.5 mV; in series [1] (drug solution in 0.1N HCl, 250 μg/mL), 333.2 mV; in series [1] (drug solution in 0.1N HCl, 500 μg/mL), 333.7 mV; in series [1] (drug solution in 0.1N HCl, 1000 μg/mL) it was 332.1 mV; in series [1] (drug solution in ultrapure deionized water, 100 μg/mL) it was 28.2 mV. The Cond. in series [1] (drug solution in ultrapure deionized water, 200 μg/mL) is given as 24.5 mV; in series [1] (drug solution in ultrapure deionized water, 250 μg/mL), 21.3 mV; in series [1] (drug solution in ultrapure deionized water, 500 μg/mL) it was 21.3 mV; in series [1] (drug solution in ultrapure deionized water, 1000 μg/mL), 31.3 mV.

Source of the values: patent US20180303824A1, “Compositions for deterring abuse of pharmaceutical products and alcohol” (priority 2015, published 2018).
